Target: T1, human CB2R (Homo sapiens, UniProt P34972)
T1 construct: host or cells: CHO cells
Assay: CB2R mediated modulation of cAMP synthesis
Format: cell-based
Settings: found through the use of the above described assays (binding and cAMP); CHO cells expressing human CB2R, forskolin-stimulated cAMP
Procedure, shortened: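 CHO cells expressing human CB2R were treated for 30 min at 37 °C with compound in buffer containing 1 mM IBMX, 0.25% BSA and 10 uM forskolin. cAMP was measured after lysis. EC50 is the concentration giving 50% inhibition of forskolin-stimulated cAMP, scaled to the level set by 1 uM CP55940, fitted by four-parameter logistic.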

T1 sequence (P34972 whole entry): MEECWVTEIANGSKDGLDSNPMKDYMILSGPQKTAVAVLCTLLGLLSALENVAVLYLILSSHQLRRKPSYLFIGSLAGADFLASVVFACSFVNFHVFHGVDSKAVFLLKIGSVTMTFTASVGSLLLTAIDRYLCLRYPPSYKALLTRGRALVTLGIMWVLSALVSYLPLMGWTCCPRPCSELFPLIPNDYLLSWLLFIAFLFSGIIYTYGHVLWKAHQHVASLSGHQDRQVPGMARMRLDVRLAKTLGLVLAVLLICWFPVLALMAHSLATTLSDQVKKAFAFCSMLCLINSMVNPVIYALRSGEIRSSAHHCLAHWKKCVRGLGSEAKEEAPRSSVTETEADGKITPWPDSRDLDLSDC

With CC(C)(C)c1csc(NC(=O)C(C)(C)S(=O)(=O)c2ccc(C(F)(F)F)nc2)n1 [N-(4-tert-Butyl-thiazol-2-yl)-2-methyl-2-(6-trifluoromethyl-pyridine-3-sulfonyl)-propionamide] the agonistic activity was “agonistic activity”.

In the case of CC(C)(C)c1csc(NC(=O)C(C)(C)S(=O)(=O)c2ccc3ccccc3c2)n1 [N-(4-tert-Butyl-thiazol-2-yl)-2-methyl-2-(naphthalene-2-sulfonyl)-propionamide], the agonistic activity is reported as “agonistic activity”.

For CC(C)(C)c1csc(NC(=O)C(C)(C)S(=O)(=O)c2cccnc2)n1 [N-(4-tert-Butyl-thiazol-2-yl)-2-methyl-2-(pyridine-3-sulfonyl)-propionamide], the agonistic activity was “agonistic activity”.

Cc1ccccc1S(=O)(=O)C(C)(C)C(=O)Nc1nc(C(C)(C)C)cs1 [N-(4-tert-Butyl-thiazol-2-yl)-2-methyl-2-(toluene-2-sulfonyl)-propionamide] was tested, and the agonistic activity was “agonistic activity”.

With Cc1ccc(S(=O)(=O)C(C)(C)C(=O)Nc2nc(C(C)(C)C)cs2)cc1 [N-(4-tert-Butyl-thiazol-2-yl)-2-methyl-2-(toluene-4-sulfonyl)-propionamide] the agonistic activity was “agonistic activity”.

With CC(C)C(C(=O)Nc1nc(C(C)(C)C)cs1)S(=O)(=O)c1ccc(C(F)(F)F)cc1 (stereo not shown) [N-(4-tert-Butyl-thiazol-2-yl)-3-methyl-2-(4-trifluoromethyl-benzenesulfonyl)-butyramide] the agonistic activity was “agonistic activity”.

For COc1ccc(S(=O)(=O)C(C)(C)C(=O)Nc2nc(C(C)(C)C)cs2)cc1 [N-(4-tert-butyl-1,3-thiazol-2-yl)-2-[(4-methoxyphenyl)sulfonyl]-2-methylpropanamide], the agonistic activity was “agonistic activity”.

CC(C)(C)c1nc(NC(=O)C(C)(C)S(=O)(=O)c2ccc(Cl)cc2)sc1C#N [N-(4-tert-butyl-5-cyano-1,3-thiazol-2-yl)-2-[(4-chlorophenyl)sulfonyl]-2-methylpropanamide] was tested, and the agonistic activity was “agonistic activity”.

For CC(C)(C)c1ccc(NC(=O)C(C)(C)S(=O)(=O)c2ccc(Cl)cc2F)cc1 [N-(4-tert-butylphenyl)-2-[(4-chloro-2-fluorophenyl)sulfonyl]-2-methylpropanamide], the agonistic activity was “agonistic activity”.

CC(C)(C)c1ccc(NC(=O)C(C)(C)S(=O)(=O)c2ccc(C(F)(F)F)nc2)cc1 [N-(4-tert-butylphenyl)-2-methyl-2-{[6-(trifluoromethyl)pyridin-3-yl]sulfonyl}propanamide] was tested, and the agonistic activity was “agonistic activity”.

For Cn1nc(C2CC2)cc1NC(=O)C(C)(C)S(=O)(=O)c1ccc(F)cc1F [N-(5-Cyclopropyl-2-methyl-2H-pyrazol-3-yl)-2-(2,4-difluoro-benzenesulfonyl)-2-methyl-propionamide], the agonistic activity was “agonistic activity”.

For CCc1sc(NC(=O)C(C)(C)S(=O)(=O)c2ccc(OC)cc2)nc1-c1ccccc1 [N-(5-ethyl-4-phenyl-1,3-thiazol-2-yl)-2-[(4-methoxyphenyl)sulfonyl]-2-methylpropanamide], the agonistic activity was “agonistic activity”.

CCc1sc(NC(=O)C(C)(C)S(=O)(=O)c2ccc(S(C)(=O)=O)cc2)nc1-c1ccccc1 [N-(5-ethyl-4-phenyl-1,3-thiazol-2-yl)-2-methyl-2-{[4-(methylsulfonyl)phenyl]sulfonyl}propanamide] was tested, and the agonistic activity was “agonistic activity”.

In the case of CCc1sc(NC(=O)C(C)(C)S(=O)(=O)c2ccc(C(F)(F)F)nc2)nc1-c1ccccc1 [N-(5-ethyl-4-phenyl-1,3-thiazol-2-yl)-2-methyl-2-{[6-(trifluoromethyl)pyridin-3-yl]sulfonyl}propanamide], the agonistic activity is reported as “agonistic activity”.

In the case of CCC(C)c1cc(NC(=O)C(C)(C)S(=O)(=O)c2ccc(Cl)cc2)n(C)n1 (stereo not shown) [N-(5-sec-Butyl-2-methyl-2H-pyrazol-3-yl)-2-(4-chloro-benzenesulfonyl)-2-methyl-propionamide], the agonistic activity is reported as “agonistic activity”.

In the case of CCC(C)c1ccc(NC(=O)C(C)(C)S(=O)(=O)c2ccc(Cl)cc2)nc1 (stereo not shown) [N-(5-sec-Butyl-pyridin-2-yl)-2-(4-chloro-benzenesulfonyl)-2-methyl-propionamide], the agonistic activity is reported as “agonistic activity”.

With Cn1nc(C(C)(C)C)cc1NC(=O)C(C)(C)S(=O)(=O)c1ccc(F)cc1F [N-(5-tert-Butyl-2-methyl-2H-pyrazol-3-yl)-2-(2,4-difluoro-benzenesulfonyl)-2-methyl-propionamide] the agonistic activity was “agonistic activity”.

For Cn1nc(C(C)(C)C)cc1NC(=O)C(C)(C)S(=O)(=O)c1cc(F)ccc1F [N-(5-tert-Butyl-2-methyl-2H-pyrazol-3-yl)-2-(2,5-difluoro-benzenesulfonyl)-2-methyl-propionamide], the agonistic activity was “agonistic activity”.

Cc1ccc(S(=O)(=O)C(C)(C)C(=O)Nc2cc(C(C)(C)C)nn2C)c(F)c1 [N-(5-tert-Butyl-2-methyl-2H-pyrazol-3-yl)-2-(2-fluoro-4-methyl-benzenesulfonyl)-2-methyl-propionamide] was tested, and the agonistic activity was “agonistic activity”.

In the case of Cn1nc(C(C)(C)C)cc1NC(=O)C(C)(C)S(=O)(=O)c1ccccc1F [N-(5-tert-Butyl-2-methyl-2H-pyrazol-3-yl)-2-(2-fluoro-benzenesulfonyl)-2-methyl-propionamide], the agonistic activity is reported as “agonistic activity”.

In the case of COc1ccc(S(=O)(=O)C(C)(C)C(=O)Nc2cc(C(C)(C)C)nn2C)cc1F [N-(5-tert-Butyl-2-methyl-2H-pyrazol-3-yl)-2-(3-fluoro-4-methoxy-benzenesulfonyl)-2-methyl-propionamide], the agonistic activity is reported as “agonistic activity”.

For Cc1ccc(S(=O)(=O)C(C)(C)C(=O)Nc2cc(C(C)(C)C)nn2C)cc1F [N-(5-tert-Butyl-2-methyl-2H-pyrazol-3-yl)-2-(3-fluoro-4-methyl-benzenesulfonyl)-2-methyl-propionamide], the agonistic activity was “agonistic activity”.

For Cn1nc(C(C)(C)C)cc1NC(=O)C(C)(C)S(=O)(=O)c1cccc(F)c1 [N-(5-tert-Butyl-2-methyl-2H-pyrazol-3-yl)-2-(3-fluoro-benzenesulfonyl)-2-methyl-propionamide], the agonistic activity was “agonistic activity”.

Cn1nc(C(C)(C)C)cc1NC(=O)C(C)(C)S(=O)(=O)c1ccc(Cl)cc1F [N-(5-tert-Butyl-2-methyl-2H-pyrazol-3-yl)-2-(4-chloro-2-fluoro-benzenesulfonyl)-2-methyl-propionamide] was tested, and the agonistic activity was “agonistic activity”.

In the case of Cn1nc(C(C)(C)C)cc1NC(=O)C(C)(C)S(=O)(=O)c1ccc(Cl)cc1 [N-(5-tert-Butyl-2-methyl-2H-pyrazol-3-yl)-2-(4-chloro-benzenesulfonyl)-2-methyl-propionamide], the agonistic activity is reported as “agonistic activity”.

With Cn1nc(C(C)(C)C)cc1NC(=O)C(C)(C)S(=O)(=O)c1ccc(C#N)cc1F [N-(5-tert-Butyl-2-methyl-2H-pyrazol-3-yl)-2-(4-cyano-2-fluoro-benzenesulfonyl)-2-methyl-propionamide] the agonistic activity was “agonistic activity”.

For Cn1nc(C(C)(C)C)cc1NC(=O)C(C)(C)S(=O)(=O)c1ccc(C#N)cc1 [N-(5-tert-Butyl-2-methyl-2H-pyrazol-3-yl)-2-(4-cyano-benzenesulfonyl)-2-methyl-propionamide], the agonistic activity was “agonistic activity”.

Cn1nc(C(C)(C)C)cc1NC(=O)C(C)(C)S(=O)(=O)c1ccc(F)cc1 [N-(5-tert-Butyl-2-methyl-2H-pyrazol-3-yl)-2-(4-fluoro-benzenesulfonyl)-2-methyl-propionamide] was tested, and the agonistic activity was “agonistic activity”.

With COc1ccc(S(=O)(=O)C(C)(C)C(=O)Nc2cc(C(C)(C)C)nn2C)cc1 [N-(5-tert-Butyl-2-methyl-2H-pyrazol-3-yl)-2-(4-methoxy-benzenesulfonyl)-2-methyl-propionamide] the agonistic activity was “agonistic activity”.

In the case of Cn1nc(C(C)(C)C)cc1NC(=O)C(C)(C)S(=O)(=O)c1ccc(Cl)nc1 [N-(5-tert-Butyl-2-methyl-2H-pyrazol-3-yl)-2-(6-chloro-pyridine-3-sulfonyl)-2-methyl-propionamide], the agonistic activity is reported as “agonistic activity”.

COc1ccc(S(=O)(=O)C(C)(C)C(=O)Nc2cc(C(C)(C)C)nn2C)cn1 [N-(5-tert-Butyl-2-methyl-2H-pyrazol-3-yl)-2-(6-methoxy-pyridine-3-sulfonyl)-2-methyl-propionamide] was tested, and the agonistic activity was “agonistic activity”.

In the case of Cn1nc(C(C)(C)C)cc1NC(=O)C(C)(C)S(=O)(=O)c1ccc(C(F)(F)F)nc1 [N-(5-tert-Butyl-2-methyl-2H-pyrazol-3-yl)-2-methyl-2-(6-trifluoromethyl-pyridine-3-sulfonyl)-propionamide], the agonistic activity is reported as “agonistic activity”.

Cc1ccc(S(=O)(=O)C(C)(C)C(=O)Nc2cc(C(C)(C)C)nn2C)cc1 [N-(5-tert-Butyl-2-methyl-2H-pyrazol-3-yl)-2-methyl-2-(toluene-4-sulfonyl)-propionamide] was tested, and the agonistic activity was “agonistic activity”.

With CC(C)C(C(=O)Nc1cc(C(C)(C)C)nn1C)S(=O)(=O)c1ccc(C(F)(F)F)cc1 (stereo not shown) [N-(5-tert-Butyl-2-methyl-2H-pyrazol-3-yl)-3-methyl-2-(4-trifluoromethyl-benzenesulfonyl)-butyramide] the agonistic activity was “agonistic activity”.

In the case of CC(C)(C)c1cc(NC(=O)C(C)(C)S(=O)(=O)c2ccccc2F)[nH]n1 [N-(5-tert-Butyl-2H-pyrazol-3-yl)-2-(2-fluoro-benzenesulfonyl)-2-methyl-propionamide], the agonistic activity is reported as “agonistic activity”.

CC(C)(C)c1cc(NC(=O)C(C)(C)S(=O)(=O)c2ccc(Cl)cc2)[nH]n1 [N-(5-tert-Butyl-2H-pyrazol-3-yl)-2-(4-chloro-benzenesulfonyl)-2-methyl-propionamide] was tested, and the agonistic activity was “agonistic activity”.

With CC(C)(C)c1cc(NC(=O)C(C)(C)S(=O)(=O)c2ccc(C(F)(F)F)nc2)[nH]n1 [N-(5-tert-Butyl-2H-pyrazol-3-yl)-2-methyl-2-(6-trifluoromethyl-pyridine-3-sulfonyl)-propionamide] the agonistic activity was “agonistic activity”.
